# Results from PubChem BioAssay AID1963839 (Molecular Pharmacology Branch, DTP, NCI, 2024).
# System: 817829-284-R-J1-PDC complex spheroid viability
# Experiment: Anticancer human tumor 817829-284-R-J1-PDC patient-derived colon adenocarcinoma cell line growth inhibition [POLQ]
# Settings: for IC50: curve of first compound; for viability, T/C: stronger effect = lower value
# Protocol: Multicellular complex tumor spheroid response to Polymerase (POL) inhibitors (novobiocin, ART-558, RP6685) in combination with a variety of drugs and investigational agents in selected tumor cell lines
# The POL inhibitors (novobiocin, ART-558, and RP6685) were evaluated both individually and in combination with standard of care and investigational anticancer small molecules within a complex spheroid model of solid tumors. . Complex spheroids include a stromal component modeled by human endothelial cells (HUVEC) and fibroblasts modeled by human mesenchymal stem cells (MSCs). The concentration ranges selected for each drug and investigational agent were based upon clinically achievable concentrations if the clinical Cmax of the agent was known.
# Compounds. The drugs and investigational agents: novobiocin (NSC847541), ART-558 (NSC835418), RP-6685 (NSC848927), peposertib (NSC802822), ceralasertib (NSC780249), elimusertib (NSC800525), camonsertib (NSC841442), AZD-1390 (NSC803789), olaparib (NSC753686), talazoparib (NSC767125), rucaparib (NSC756644), sotorasib (NSC818433), MRTX-1133 (NSC836407), SN-38 (NSC673596), topotecan (NSC609699), epotoside (NSC141540), doxorubicin (NSC123127), gemcitabine (NSC613327), 5-fluorouracil (NSC19893), paclitaxel (NSC125973), vemurafenib (NSC761431), MSA-2 (NSC828583), SN-011 (NSC837082), adavosertib (NSC754352), prexasertib (NSC758257), carboplatin (NSC241240) and oxaliplatin (NSC266046), were obtained from the National Cancer Institute (NCI) Developmental Therapeutics Program Chemical Repository (21). The FDA-approved anticancer drug set is available from the Developmental Therapeutics Program at https://dtp.cancer.gov/organization/dscb/obtaining/. […] The stock solutions were prepared in dimethyl sulfoxide (DMSO, Sigma-Aldrich, St. Louis, MO, cat. D2650), except for the platinum compounds which were prepared in saline (Quality Biological, Gaithersburg, MD, cat. 114-055-101), at 800-fold the tested concentration and stored at -70 degrees C prior to their use. All drugs and investigational agents were tested over a range starting from a high concentration at or near the clinical Cmax and decreasing in half-log increments. If the clinical Cmax for an agent had not been determined, the highest concentration tested was 10 microM, except for SN-38, which was tested at a high concentration of 1 microM.
# Cell Culture. All cells were maintained in an incubator at 37 degrees C and 5% CO2 with 95% humidity. The PDC lines were cultured according to standard operating procedures established by the NCI PDMR (https://pdmr.cancer.gov). Table 3 of the manuscript, lists the cell lines along with the number of the three cell types plated to form the mct-spheroids and media for tumor cell growth. After thawing, all PDC lines, except 997537-175-T-J1-PDC and 415267-285-R-J2-PDC, were cultured in Matrigel-coated flasks prepared with a working solution of 1X Ham's F-12 nutrient mix, without supplementation (Thermo Fisher Scientific, cat. 11765054), 100 U/mL penicillin-streptomycin (Thermo Fisher Scientific, cat. 15140122), and 2.5% Matrigel (Corning Inc., Corning, NY, cat. 354248) for the first three passages. The two PDC lines 997537-175-T-J1-PDC and 415267-285-R-J2-PDC were cultured on uncoated flasks. The 857933-349-R-J2-PDC line was cultured in 6C/Colon 1B media containing advanced DMEM/F-12 (Thermo Fisher Scientific, cat. 12634028), 10 mM HEPES (Thermo Fisher Scientific, cat. 15630080), 1X GlutaMAX supplement (Thermo Fisher Scientific, cat. 35050061), 0.1 mg/mL primocin (InvivoGen, San Diego, CA, cat. ant-pm-2), 10% defined fetal bovine serum, heat inactivated (HyClone Laboratories Inc., Logan, UT, cat. SH30070.03HI), 50% L-WRN conditioned media (ATCC, cat. CRL-3276), 1.25 mM N-Acetyl-L-cysteine (Sigma-Aldrich, cat. A9165), 10 mM nicotinamide (Sigma-Aldrich, cat. N0636), 1X B-27 supplement (Thermo Fisher Scientific, cat. 17504044), 1X N-2 supplement (Thermo Fisher Scientific, cat. […]
# [1] = second compound 0.0316 µM, first compound 0.0316 µM
# [2] = second compound 0.0316 µM, first compound 0.1 µM
# [3] = second compound 0.1 µM, first compound 0.0316 µM
# [4] = second compound 0.1 µM, first compound 0.1 µM
# [5] = second compound 0.316 µM, first compound 0.0316 µM
# [6] = second compound 0.316 µM, first compound 0.1 µM
# [7] = second compound 1 µM, first compound 0.0316 µM
# [8] = second compound 1 µM, first compound 0.1 µM
# [9] = second compound 3.16 µM, first compound 0.0316 µM
# [10] = second compound 3.16 µM, first compound 0.1 µM
# [11] = second compound 10 µM, first compound 0.0316 µM
# [12] = second compound 10 µM, first compound 0.1 µM
# 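Further: spheroids exposed to compounds for 7 days.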
# 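Wherever viability, T/C is given: 100% = DMSO vehicle-treated spheroids.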
structure (smiles),measurement,setting,value
CC[C@@]1(O)C(=O)OCc2c1cc1n(c2=O)Cc2cc3c(CN(C)C)c(O)ccc3nc2-1 + COC1C(OC(N)=O)C(O)C(Oc2ccc3c(O)c(NC(=O)c4ccc(O)c(CC=C(C)C)c4)c(=O)oc3c2C)OC1(C)C,IC50,second compound 0.0316 µM,4.86 nM
same,IC50,second compound 0.1 µM,6.13 nM
same,IC50,second compound 0.316 µM,5.58 nM
same,IC50,second compound 1 µM,7.53 nM
same,IC50,second compound 3.16 µM,7.95 nM
same,IC50,second compound 10 µM,5.89 nM
same,"viability, T/C","second compound 0.0316 µM, first compound 0.000316 µM",80.6%
same,"viability, T/C","second compound 0.0316 µM, first compound 0.001 µM",87.4%
same,"viability, T/C","second compound 0.0316 µM, first compound 0.00316 µM",58.6%
same,"viability, T/C","second compound 0.0316 µM, first compound 0.01 µM",32.5%
same,"viability, T/C",[1],21.7%
same,"viability, T/C",[2],16.1%
same,"viability, T/C","second compound 0.1 µM, first compound 0.000316 µM",69.7%
same,"viability, T/C","second compound 0.1 µM, first compound 0.001 µM",81.7%
same,"viability, T/C","second compound 0.1 µM, first compound 0.00316 µM",76.2%
same,"viability, T/C","second compound 0.1 µM, first compound 0.01 µM",30.9%
same,"viability, T/C",[3],21.4%
same,"viability, T/C",[4],15.7%
same,"viability, T/C","second compound 0.316 µM, first compound 0.000316 µM",74.4%
same,"viability, T/C","second compound 0.316 µM, first compound 0.001 µM",78.8%
same,"viability, T/C","second compound 0.316 µM, first compound 0.00316 µM",57.8%
same,"viability, T/C","second compound 0.316 µM, first compound 0.01 µM",40.8%
same,"viability, T/C",[5],20.1%
same,"viability, T/C",[6],17.3%
same,"viability, T/C","second compound 1 µM, first compound 0.000316 µM",83.2%
same,"viability, T/C","second compound 1 µM, first compound 0.001 µM",106%
same,"viability, T/C","second compound 1 µM, first compound 0.00316 µM",84.1%
same,"viability, T/C","second compound 1 µM, first compound 0.01 µM",38.6%
same,"viability, T/C",[7],20.2%
same,"viability, T/C",[8],16.2%
same,"viability, T/C","second compound 3.16 µM, first compound 0.000316 µM",106%
same,"viability, T/C","second compound 3.16 µM, first compound 0.001 µM",78.2%
same,"viability, T/C","second compound 3.16 µM, first compound 0.00316 µM",99.8%
same,"viability, T/C","second compound 3.16 µM, first compound 0.01 µM",38.8%
same,"viability, T/C",[9],20.5%
same,"viability, T/C",[10],18.4%
same,"viability, T/C","second compound 10 µM, first compound 0.000316 µM",97.6%
same,"viability, T/C","second compound 10 µM, first compound 0.001 µM",87.6%
same,"viability, T/C","second compound 10 µM, first compound 0.00316 µM",69.3%
same,"viability, T/C","second compound 10 µM, first compound 0.01 µM",34%
same,"viability, T/C",[11],20.6%
same,"viability, T/C",[12],19.1%
CNCc1ccc(-c2[nH]c3cc(F)cc4c3c2CCNC4=O)cc1 + COC1C(OC(N)=O)C(O)C(Oc2ccc3c(O)c(NC(=O)c4ccc(O)c(CC=C(C)C)c4)c(=O)oc3c2C)OC1(C)C,IC50,second compound 0.0316 µM,6630 nM
same,IC50,second compound 0.1 µM,> 10000 nM
same,IC50,second compound 0.316 µM,> 10000 nM
same,IC50,second compound 1 µM,5240 nM
same,IC50,second compound 3.16 µM,5170 nM
same,IC50,second compound 10 µM,5380 nM
same,"viability, T/C",[1],95.8%
same,"viability, T/C",[2],94%
same,"viability, T/C","second compound 0.0316 µM, first compound 0.316 µM",83%
same,"viability, T/C","second compound 0.0316 µM, first compound 1 µM",76.8%
same,"viability, T/C","second compound 0.0316 µM, first compound 3.16 µM",68.8%
same,"viability, T/C","second compound 0.0316 µM, first compound 10 µM",40.2%
same,"viability, T/C",[3],73.3%
same,"viability, T/C",[4],102%
same,"viability, T/C","second compound 0.1 µM, first compound 0.316 µM",86%
same,"viability, T/C","second compound 0.1 µM, first compound 1 µM",55.2%
same,"viability, T/C","second compound 0.1 µM, first compound 3.16 µM",72.8%
same,"viability, T/C","second compound 0.1 µM, first compound 10 µM",53.3%
same,"viability, T/C",[5],99.1%
same,"viability, T/C",[6],108%
same,"viability, T/C","second compound 0.316 µM, first compound 0.316 µM",83.7%
same,"viability, T/C","second compound 0.316 µM, first compound 1 µM",80.4%
same,"viability, T/C","second compound 0.316 µM, first compound 3.16 µM",74.3%
same,"viability, T/C","second compound 0.316 µM, first compound 10 µM",51.5%
same,"viability, T/C",[7],125%
same,"viability, T/C",[8],91.6%
same,"viability, T/C","second compound 1 µM, first compound 0.316 µM",107%
same,"viability, T/C","second compound 1 µM, first compound 1 µM",81.8%
same,"viability, T/C","second compound 1 µM, first compound 3.16 µM",80.3%
same,"viability, T/C","second compound 1 µM, first compound 10 µM",22%
same,"viability, T/C",[9],119%
same,"viability, T/C",[10],109%
same,"viability, T/C","second compound 3.16 µM, first compound 0.316 µM",98.9%
same,"viability, T/C","second compound 3.16 µM, first compound 1 µM",103%
same,"viability, T/C","second compound 3.16 µM, first compound 3.16 µM",58.5%
same,"viability, T/C","second compound 3.16 µM, first compound 10 µM",38.2%
same,"viability, T/C",[11],98%
same,"viability, T/C",[12],99%
same,"viability, T/C","second compound 10 µM, first compound 0.316 µM",75.1%
same,"viability, T/C","second compound 10 µM, first compound 1 µM",90.1%
same,"viability, T/C","second compound 10 µM, first compound 3.16 µM",73.9%
same,"viability, T/C","second compound 10 µM, first compound 10 µM",23.1%
